From patent US20090004664A1, “HCV NS3 replicon shuttle vectors” (ROCHE PALO ALTO LLC, priority 2007, published 2009)

Tests used:
Format in all cases: cell-based, HCV
[1] = test system: Genotype-1a template NS3 shuttle vector (H77NS3) replicon; assay: Replicon phenotypic assay (transient replicon, firefly luciferase), Genotype-1a template NS3 shuttle vector; settings: Hepatitis C virus, Huh-7; H77 NS3 replicon in cured Huh7 cells; inhibitor added 24 h post-transfection, luciferase read 72 h later
Description: (§1) Five micrograms of DNA plasmids were linearized by Sca I restriction enzyme (Roche). After overnight digestion at 37° C., the DNA was purified using Qiagen PCR purification kit. One microgram of linearized DNA was used for the in vitro transcription using T7 Mega script kit following manufacturer's protocol (Ambion). After 2 hours of incubation at 37° C., DNase treatment was performed for 30 minutes at 37° C. to remove the DNA template. In vitro transcribed RNA was then purified using NucAway Spin Column following manufacturer's protocol (Ambion).
(§2) Cured hepatoma cell line Huh7 were cultured at 37° C. in a humidified atmosphere with 5% CO2 in Dulbecco's Modified Eagle Medium (DMEM) supplemented with Glutamax™ and 100 mg/ml sodium pyruvate (Cat# 10569-010). The medium was further supplemented with 10% (v/v) FBS (Cat# 16000-036) and 1% (v/v) penicillin/streptomycin (Cat# 15140-122). All reagents were from Invitrogen/Gibco.
(§3) Four million cured Huh7 cells were transfected with 5 μg of in vitro transcribed RNA using electroporation. […] Inhibitors were added 24 hours post-transfection in 3 fold dilutions at a final DMSO concentration of 1% and firefly luciferase reporter signal was read 72 hours after addition of inhibitors using the Luciferase Assay system (Promega, cat #E1501). […]

[2] = test system: replicon containing patient-derived NS3 TN132-1 (NS3 V36M, GT1a clinical isolate TN132); assay: Replicon phenotypic assay, replicon containing patient-derived NS3 TN132-1; settings: Hepatitis C virus, Huh-7
Description: as §1, §2, §3

[3] = test system: replicon containing patient-derived NS3 TN132-2 (NS3 V36M, GT1a clinical isolate TN132); assay: Replicon phenotypic assay, replicon containing patient-derived NS3 TN132-2; settings: Hepatitis C virus, Huh-7
Description: as §1, §2, §3

[4] = test system: replicon containing patient-derived NS3 TN132-6 (NS3 V36M, GT1a clinical isolate TN132); assay: Replicon phenotypic assay, replicon containing patient-derived NS3 TN132-6; settings: Hepatitis C virus, Huh-7
Description: as §1, §2, §3

[5] = test system: replicon containing patient-derived NS3 2209-23; assay: Replicon phenotypic assay, replicon containing patient-derived NS3 2209-23; settings: Hepatitis C virus, Huh-7; 2209-23 replicon in cured Huh7 cells; inhibitor added 24 h post-transfection, luciferase read 72 h later
Description: as §1, §2, §3

[6] = test system: replicon containing patient-derived NS3 of sample TN-132 (V36M mutation in the NS3 gene); assay: Replicon phenotypic assay, patient sample TN-132; settings: sample TN-132 carrying V36M mutation in the NS3 gene
Description: as §1, §2, §3

CCC[C@H](NC(=O)[C@@H]1[C@H]2CCC[C@H]2CN1C(=O)[C@@H](NC(=O)[C@@H](NC(=O)c1cnccn1)C1CCCCC1)C(C)(C)C)C(=O)C(=O)NC1CC1 [VX-950]
IC50 [1]: 0.44 µM
IC50 [2]: 2.37 µM
IC50 [3]: 2.61 µM
IC50 [4]: 1.47 µM
IC50 [5]: 0.63 µM
sensitivity of sample TN-132 to the inhibitor [6]: reduced sensitivity
